Measurements as given in US6472348B1, “Pyridone derivatives and herbicides” (Kumiai Chemical Industry Co., Ltd., priority 1996, dated 2002).

What was measured:
[1] = test system: barnyardgrass (Ec); experiment: Test Example 1: herbicidal effects by paddy field soil treatment; assay type: in vivo; details: 100 g of the active ingredient per 10 ares, 21st day after the application, index 0-5 of Table 47;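 also: grade of growth control; 5 = at least 90%; 4 = 70 to 90%; 3 = 50 to 70%; 2 = 30 to 50%; 1 = 10 to 30%; 0 = under 10%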
In short: (§1)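 Greenhouse pot test in flooded paddy soil, dosed at 100 g a.i. per 10 ares; effect scored on day 21.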

[2] = test system: bulrush (Sc); experiment: as above; assay type: in vivo; details: 100 g of the active ingredient per 10 ares, 21st day after the application, index 0-5 of Table 47;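 also: grade of growth control; 5 = at least 90%; 4 = 70 to 90%; 3 = 50 to 70%; 2 = 30 to 50%; 1 = 10 to 30%; 0 = under 10%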
In short: as §1

[3] = test system: monochoria (Mo); experiment: as above; assay type: in vivo; details: 100 g of the active ingredient per 10 ares, 21st day after the application, index 0-5 of Table 47;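 also: grade of growth control; 5 = at least 90%; 4 = 70 to 90%; 3 = 50 to 70%; 2 = 30 to 50%; 1 = 10 to 30%; 0 = under 10%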
In short: as §1

[4] = test system: Digitaria ciliaris (Di); experiment: Test Example 2: herbicidal effects by upland field soil treatment; assay type: in vivo; details: 100 g of the active ingredient per 10 ares, 21st day after the application, index 0-5 of Table 47;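 also: grade of growth control; 5 = at least 90%; 4 = 70 to 90%; 3 = 50 to 70%; 2 = 30 to 50%; 1 = 10 to 30%; 0 = under 10%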
Text: (§2) (Test on Herbicidal Effects by Upland Field Soil Treatment)

[5] = test system: barnyardgrass (Ec); experiment: as above; assay type: in vivo; details: 100 g of the active ingredient per 10 ares, 21st day after the application, index 0-5 of Table 47
Text: as §2

[6] = test system: common lambsquarters (Ch); experiment: as above; assay type: in vivo; details: 100 g of the active ingredient per 10 ares, 21st day after the application, index 0-5 of Table 47
Text: as §2

[7] = test system: pale smartweed (Po); experiment: as above; assay type: in vivo; details: 100 g of the active ingredient per 10 ares, 21st day after the application, index 0-5 of Table 47
Text: as §2

[8] = test system: rice flatsedge (Ci); experiment: as above; assay type: in vivo; details: 100 g of the active ingredient per 10 ares, 21st day after the application, index 0-5 of Table 47
Text: as §2

[9] = test system: slender amaranth (Am); experiment: as above; assay type: in vivo; details: 100 g of the active ingredient per 10 ares, 21st day after the application, index 0-5 of Table 47
Text: as §2

[10] = test system: Diaitaria ciliaris (Di); experiment: Test Example 3: herbicidal effects by upland field foliage treatment; assay type: in vivo; parameters: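 grade of growth control; 5 = at least 90%; 4 = 70 to 90%; 3 = 50 to 70%; 2 = 30 to 50%; 1 = 10 to 30%; 0 = under 10%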; details: 100 g of the active ingredient per 10 ares, evaluated on the 14th day after treatment
In short: (§3)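 Scoring used a standard effect scale on the 14th day post-treatment, with plants held in a greenhouse throughout. Foliar application was made to weeds raised from seed in sand-filled pots for 2 weeks.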

[11] = test system: barnyardgrass (Ec); experiment: as above; assay type: in vivo; parameters: scale not given here; details: 100 g of the active ingredient per 10 ares, evaluated on the 14th day after treatment
In short: as §3

[12] = test system: common lambsquarters (Ch); experiment: as above; assay type: in vivo; parameters: scale not given here; details: 100 g of the active ingredient per 10 ares, evaluated on the 14th day after treatment
In short: as §3

[13] = test system: pale smartweed (Po); experiment: as above; assay type: in vivo; parameters: scale not given here; details: 100 g of the active ingredient per 10 ares, evaluated on the 14th day after treatment
In short: as §3

[14] = test system: rice flatsedge (Ci); experiment: as above; assay type: in vivo; parameters: scale not given here; details: 100 g of the active ingredient per 10 ares, evaluated on the 14th day after treatment
In short: as §3

[15] = test system: slender amaranth (Am); experiment: as above; assay type: in vivo; parameters: scale not given here; details: 100 g of the active ingredient per 10 ares, evaluated on the 14th day after treatment
In short: as §3

[16] = test system: wheat (Tr); experiment: Test Example 9: crop plant selectivity by upland field foliage treatment (wheat), phytotoxicity; details: dose 1.6 g ai/10a, 14th day after treatment
In short: (§4)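 Wheat and weeds sown in sand-filled pots, grown 2 weeks in a greenhouse, then foliage-treated. Herbicidal effect and crop phytotoxicity were scored 14 days after treatment against a rating scale.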

[17] = test system: China jute (Ab); experiment: Test Example 9: crop plant selectivity by upland field foliage treatment (wheat), herbicidal effects; assay type: in vivo; parameters: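 grade of growth control; 5 = at least 90%; 4 = 70 to 90%; 3 = 50 to 70%; 2 = 30 to 50%; 1 = 10 to 30%; 0 = under 10%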; details: dose 1.6 g ai/10a, 14th day after treatment
In short: as §4

[18] = test system: common lambsquarters (Ch); experiment: as above; assay type: in vivo; parameters: scale not given here; details: dose 1.6 g ai/10a, 14th day after treatment
In short: as §4

[19] = test system: pale smartweed (Po); experiment: as above; assay type: in vivo; parameters: scale not given here; details: dose 1.6 g ai/10a, 14th day after treatment
In short: as §4

[20] = test system: slender amaranth (Am); experiment: as above; assay type: in vivo; parameters: scale not given here; details: dose 1.6 g ai/10a, 14th day after treatment
In short: as §4

[21] = test system: soybean (Gl); experiment: Test Example 10: crop plant selectivity by upland field foliage treatment (soybean), phytotoxicity; details: dose 1.6 g ai/10a, 14th day after treatment
Protocol: (§5) (Test on Crop Plant Selectivity by Upland Field Foliage Treatment)
(§6) In a plastic pot (surface area: 600 cm^2) filled with sand, soybean (Gl), pale smartweed (Po), slender amaranth (Am), common lambsquarters (Ch) and China jute (Ab) were sown and cultured in a green house for 2 weeks. […] The plants were then cultured in a green house, and the evaluation of the herbicidal effects and phytotoxicity was conducted on the 14th day after the treatment in accordance with the standards as identified in Table 47.

[22] = test system: China jute (Ab); experiment: Test Example 10: crop plant selectivity by upland field foliage treatment (soybean), herbicidal effects; assay type: in vivo; details: dose 1.6 g ai/10a, 14th day after treatment
Protocol: as §5, §6

[23] = test system: common lambsquarters (Ch); experiment: as above; assay type: in vivo; details: dose 1.6 g ai/10a, 14th day after treatment
Protocol: as §5, §6

[24] = test system: pale smartweed (Po); experiment: as above; assay type: in vivo; details: dose 1.6 g ai/10a, 14th day after treatment
Protocol: as §5, §6

[25] = test system: slender amaranth (Am); experiment: as above; assay type: in vivo; details: dose 1.6 g ai/10a, 14th day after treatment
Protocol: as §5, §6

[26] = test system: corn (Ze); experiment: Test Example 11: crop plant selectivity by upland field foliage treatment (corn), phytotoxicity; details: upland field foliage treatment, dose 1.6 g ai/10a, 14th day after treatment
In short: (§7)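 Corn and the weed species were sown together in sand-filled pots and grown in a greenhouse for 2 weeks before foliar treatment. Herbicidal effect was scored on day 14 after treatment against a graded standard scale, with corn phytotoxicity scored alongside.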

[27] = test system: China jute (Ab); experiment: Test Example 11: crop plant selectivity by upland field foliage treatment (corn), herbicidal effects; assay type: in vivo; parameters: scale not given here; details: upland field foliage treatment (corn test), dose 1.6 g ai/10a, 14th day after treatment
In short: as §7

[28] = test system: common lambsquarters (Ch); experiment: as above; assay type: in vivo; parameters: scale not given here; details: upland field foliage treatment (corn test), dose 1.6 g ai/10a, 14th day after treatment
In short: as §7

[29] = test system: pale smartweed (Po); experiment: as above; assay type: in vivo; parameters: scale not given here; details: upland field foliage treatment (corn test), dose 1.6 g ai/10a, 14th day after treatment
In short: as §7

[30] = test system: slender amaranth (Am); experiment: as above; assay type: in vivo; parameters: scale not given here; details: upland field foliage treatment (corn test), dose 1.6 g ai/10a, 14th day after treatment
In short: as §7

Compound | Herbicidal effects Di [4] | Herbicidal effects Ec [5] | Herbicidal effects Ch [6] | Herbicidal effects Po [7] | Herbicidal effects Ci [8] | Herbicidal effects Am [9] | Phytotoxicity Tr [16] | Herbicidal effects Ab [17] | Herbicidal effects Ch [18] | Herbicidal effects Po [19] | Herbicidal effects Am [20] | Phytotoxicity Gl [21] | Herbicidal effects Ab [22] | Herbicidal effects Ch [23] | Herbicidal effects Po [24] | Herbicidal effects Am [25] | Phytotoxicity Ze [26] | Herbicidal effects Ab [27] | Herbicidal effects Ch [28] | Herbicidal effects Po [29] | other results
Cn1c(C(F)(F)F)ccc(-c2cc(OC3CCCC3)c(Cl)cc2F)c1=O [1-26] | 5 | 5 | 5 | 5 | 5 | 5 | 2 | 5 | 5 | 5 | 5 | 2 | 5 | 5 | 5 | 5 | 2 | 5 | 5 | 5 | Herbicidal effects Ec [1]: 5; Herbicidal effects Sc [2]: 5; Herbicidal effects Mo [3]: 5; Herbicidal effects Di [10]: 5; Herbicidal effects Ec [11]: 5; Herbicidal effects Ch [12]: 5; Herbicidal effects Po [13]: 5; Herbicidal effects Ci [14]: 5; Herbicidal effects Am [15]: 5; Herbicidal effects Am [30]: 5
C#CCSc1cc(-c2ccc(C(F)(F)F)n(C)c2=O)c(Cl)cc1Cl [1-52] | 5 | 5 | 5 | 5 | 5 | 5 | 1 | 5 | 5 | 5 | 5 | 2 | 5 | 5 | 5 | 5 | 2 | 5 | 5 | 5 | Herbicidal effects Am [30]: 5
CCC(=O)c1cc(-c2ccc(C(F)(F)F)n(C)c2=O)c(F)cc1Cl [1-69] | 5 | 5 | 5 | 5 | 5 | 5 | 1 | 5 | 5 | 5 | 5 | 2 | 5 | 5 | 5 | 5 | 2 | 5 | 5 | 5 | Herbicidal effects Ec [1]: 5; Herbicidal effects Sc [2]: 5; Herbicidal effects Mo [3]: 5; Herbicidal effects Di [10]: 5; Herbicidal effects Ec [11]: 5; Herbicidal effects Ch [12]: 5; Herbicidal effects Po [13]: 5; Herbicidal effects Ci [14]: 5; Herbicidal effects Am [15]: 5; Herbicidal effects Am [30]: 5
